Reference: patent US5985911A, “C-terminal ketone inhibitors of matrix metalloproteinases and TNFα secretion” (Abbott Laboratories, priority 1997, dated 1999)

What follows are molecules tested against T1, stromelysin (Homo sapiens, UniProt P08254) (assay: Determination of stromelysin inhibition (thiopeptide ester substrate cleavage, DTNB, microtiter plate)). Conditions: not given.
T1 construct: made in house; host or cells: E. coli
Type: biochemical
Procedure: The efficacy of the compounds of this invention as matrix metalloproteinase inhibitors was determined by measuring the inhibition of stromelysin. The inhibition of stromelysin by the compounds of this invention was determined as follows: Recombinant truncated stromelysin (human sequence) produced in E. coli was prepared by expression and purification of the protein as described by Ye et al., Biochemistry, 1992, 31, 11231-11235. The enzyme was assayed by its cleavage of the thiopeptide ester substrate Ac-Pro-Leu-Gly-[2-mercapto-4-methyl-pentanoyl]-Leu-Gly-OEt described by Weingarten and Feder, Anal. Biochem., 1985, 147, 437-440 (1985), as a substrate of vertebrate collagenase. The reported conditions were modified to allow assays to be carried out in a microtiter plate. Upon hydrolysis of the thioester bond, the released thiol group reacts rapidly with 5,5'-dithio-bis(2-nitrobenzoic acid) (DTNB), producing a yellow color which is measured by a microtiter plate reader set at 405 nm. The rates of cleavage of the substrate by stromelysin in the presence or absence of inhibitors are measured in a 30 min assay at ambient temperature. Solutions of the compounds in DMSO are prepared, and these are diluted at various concentrations into the assay buffer (50 mM MES/NaOH pH 6.5 with 10 mM CaCl2 and 0.2% Pluronic F-68), which is also used for dilution of the enzyme and substrate. The potency of the compounds [IC50 ] are calculated from the inhibition/inhibitor concentration data.

T1 sequence (P08254 100-272 limits assumed): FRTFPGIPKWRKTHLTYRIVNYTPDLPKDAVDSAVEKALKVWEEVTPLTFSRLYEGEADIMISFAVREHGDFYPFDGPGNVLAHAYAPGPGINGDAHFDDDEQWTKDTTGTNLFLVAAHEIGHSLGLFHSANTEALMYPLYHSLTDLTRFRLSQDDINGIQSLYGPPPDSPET

Row | Compound | IC50 [nM]
1 | C=CC[C@H](C(=O)NO)[C@@H](CC(C)C)C(=O)NC(Cc1ccccc1)C(=O)c1nccs1 (stereo partly drawn) [Example 26] | 220
2 | C=CC[C@H](C(=O)NO)[C@@H](CC(C)C)C(=O)NC(Cc1ccccc1)C(=O)c1cccnc1 (stereo partly drawn) [Example 22] | 10
3 | CC(C)C[C@@H](C(=O)N[C@H](Cc1ccccc1)C(=O)c1c[nH]c2ccccc12)[C@H](O)C(=O)NO [Example 13] | 99

Same assay, conditions: recombinant truncated stromelysin (human sequence); thiopeptide ester substrate, pH 6.5, 30 min, ambient temperature; read-out: IC50 (Inhibitory Potencies against Stromelysin)

Row | Compound | IC50 [nM]
4 | C=CCCC[C@H](C(=O)NO)[C@@H](CC(C)C)C(=O)N[C@@H](Cc1ccc(O)cc1)C(=O)c1ccccc1 [Example 19] | 1.5
5 | C=CCCC[C@H](C(=O)NO)[C@@H](CCCc1ccc(C)cc1)C(=O)N[C@@H](Cc1ccccc1)C(=O)c1c[nH]c2ccccc12 [Example 8] | 8.6
6 | C=CCCC[C@H](C(=O)NO)[C@@H](CC(C)C)C(=O)N[C@@H](Cc1ccccc1)C(=O)c1c[nH]c2ccccc12 [Example 2] | 3.6
7 | CC(C)C[C@H](CC(=O)NO)C(=O)N[C@@H](Cc1ccccc1)C(=O)c1c[nH]c2ccccc12 [Example 5] | 5.6
8 | CON=C(c1c[nH]c2ccccc12)[C@H](Cc1ccccc1)NC(=O)[C@@H](CC(=O)NO)CC(C)C [Example 30] | 320
9 | C=CC[C@H](C(=O)NO)[C@@H](CC(C)C)C(=O)N[C@@H](CC1CCCCC1)C(=O)c1ccccc1 [Example 20] | 7.3
10 | CC(C)C[C@H](CC(=O)NO)C(=O)N[C@@H](CC(=O)O)C(=O)c1c[nH]c2ccccc12 [Example 31] | 740
11 | CC(C)C[C@@H](C(=O)N[C@H](Cc1ccccc1)C(=O)c1c[nH]c2ccccc12)[C@H](O)C(=O)O [Example 11] | 93000
12 | C=CC[C@H](C(=O)NO)[C@@H](CC(C)C)C(=O)N[C@H](C(=O)c1c[nH]c2ccccc12)C(C)(C)C [Example 9] | 1.2
13 | O=C(C[C@H](C(=O)N[C@@H](Cc1ccc(O)cc1)C(=O)c1ccccc1)C1CCCCC1)NO [Example 33] | 110
14 | CC(C)C[C@@H](C(=O)N[C@H](C(=O)c1c[nH]c2ccccc12)C(C)(C)C)[C@H](O)C(=O)NO [Example 14] | 1.2
15 | CC(C)C[C@@H](C(=O)N[C@@H](Cc1ccccc1)C(=O)c1c[nH]c2ccccc12)[C@H](O)C(=O)O [Example 10] | 7100
16 | Cc1ccc(CCC[C@H](CC(=O)NO)C(=O)N[C@@H](Cc2ccccc2)C(=O)c2c[nH]c3ccccc23)cc1 [Example 6] | 12
17 | CC(C)C[C@@H](C(=O)N[C@@H](Cc1ccccc1)C(=O)c1c[nH]c2ccccc12)[C@H](O)C(=O)NO [Example 12] | 7.8
18 | C=CC[C@H](C(=O)NO)[C@@H](CC(C)C)C(=O)N[C@@H](Cc1ccccc1)C(=O)c1ccccc1 [Example 18] | 4.5
19 | C=CCCC[C@H](C(=O)O)[C@@H](CCCc1ccc(C)cc1)C(=O)N[C@@H](Cc1ccccc1)C(=O)c1c[nH]c2ccccc12 [Example 7] | 8
20 | C=CC[C@H](C(=O)NO)[C@@H](CC(C)C)C(=O)N[C@@H](Cc1ccccc1)C(C)=O [Example 17] | 16
21 | O=C(c1c[nH]c2ccccc12)[C@H](Cc1ccccc1)NC(=O)[C@@H](CCCc1ccccc1)[C@H](O)C(=O)NO [Example 28] | 320
22 | C=CC[C@H](C(=O)NO)[C@@H](CC(C)C)C(=O)N[C@@H](Cc1ccccc1)C(=O)c1ccc[nH]1 [Example 21] | 1.7
23 | O=C(c1c[nH]c2ccccc12)[C@H](Cc1ccccc1)NC(=O)[C@H](CCCc1ccccc1)[C@H](O)C(=O)NO [Example 27] | 2.7
24 | CC(C)C[C@@H](C(=O)N[C@@H](Cc1ccccc1)C(=O)c1ccccc1)[C@H](O)C(=O)NO [Example 15] | 27
